These results are taken from ChEMBL document CHEMBL2074150, “Nucleotide binding and nucleotide hydrolysis properties of the ABC transporter MRP6 (ABCC6)” (Biochemistry, 2002).

Common to all, as to assay type: functional, cell membranes, Membrane
What all share (settings): komagataella pastoris

Series [1] addresses T1, ATP-binding cassette sub-family C member 6 (Rattus norvegicus, UniProt O88269). The series is described as follows: TP_TRANSPORTER: inhibition of photolabeling by IAARh123 (IAARh123: 1 uM, VBL: 1000 uM) in membranes from Mrp6-expressing P. pastoris.
Series [2] has as its target T1, ATP-binding cassette sub-family C member 6. The series is described as follows: TP_TRANSPORTER: inhibition of photolabeling by IAARh123 (IAARh123: 1 uM, VP-16: 1000 uM) in membranes from Mrp6-expressing P. pastoris.
Series [3] shares this target. The series is described as follows: TP_TRANSPORTER: inhibition of photolabeling by IAARh123 (IAARh123: 1 uM, K571: 1000 uM) in membranes from Mrp6-expressing P. pastoris.
For series [4] the target is unchanged. The series is described as follows: TP_TRANSPORTER: inhibition of photolabeling by IAARh123 (IAARh123: 1 uM, DOX: 1000 uM) in membranes from Mrp6-expressing P. pastoris.
The target is the same in series [5]. The series is described as follows: TP_TRANSPORTER: inhibition of photolabeling by IAARh123 (IAARh123: 1 uM, LTC4: 300 uM) in membranes from Mrp6-expressing P. pastoris.

T1 sequence (O88269 whole entry): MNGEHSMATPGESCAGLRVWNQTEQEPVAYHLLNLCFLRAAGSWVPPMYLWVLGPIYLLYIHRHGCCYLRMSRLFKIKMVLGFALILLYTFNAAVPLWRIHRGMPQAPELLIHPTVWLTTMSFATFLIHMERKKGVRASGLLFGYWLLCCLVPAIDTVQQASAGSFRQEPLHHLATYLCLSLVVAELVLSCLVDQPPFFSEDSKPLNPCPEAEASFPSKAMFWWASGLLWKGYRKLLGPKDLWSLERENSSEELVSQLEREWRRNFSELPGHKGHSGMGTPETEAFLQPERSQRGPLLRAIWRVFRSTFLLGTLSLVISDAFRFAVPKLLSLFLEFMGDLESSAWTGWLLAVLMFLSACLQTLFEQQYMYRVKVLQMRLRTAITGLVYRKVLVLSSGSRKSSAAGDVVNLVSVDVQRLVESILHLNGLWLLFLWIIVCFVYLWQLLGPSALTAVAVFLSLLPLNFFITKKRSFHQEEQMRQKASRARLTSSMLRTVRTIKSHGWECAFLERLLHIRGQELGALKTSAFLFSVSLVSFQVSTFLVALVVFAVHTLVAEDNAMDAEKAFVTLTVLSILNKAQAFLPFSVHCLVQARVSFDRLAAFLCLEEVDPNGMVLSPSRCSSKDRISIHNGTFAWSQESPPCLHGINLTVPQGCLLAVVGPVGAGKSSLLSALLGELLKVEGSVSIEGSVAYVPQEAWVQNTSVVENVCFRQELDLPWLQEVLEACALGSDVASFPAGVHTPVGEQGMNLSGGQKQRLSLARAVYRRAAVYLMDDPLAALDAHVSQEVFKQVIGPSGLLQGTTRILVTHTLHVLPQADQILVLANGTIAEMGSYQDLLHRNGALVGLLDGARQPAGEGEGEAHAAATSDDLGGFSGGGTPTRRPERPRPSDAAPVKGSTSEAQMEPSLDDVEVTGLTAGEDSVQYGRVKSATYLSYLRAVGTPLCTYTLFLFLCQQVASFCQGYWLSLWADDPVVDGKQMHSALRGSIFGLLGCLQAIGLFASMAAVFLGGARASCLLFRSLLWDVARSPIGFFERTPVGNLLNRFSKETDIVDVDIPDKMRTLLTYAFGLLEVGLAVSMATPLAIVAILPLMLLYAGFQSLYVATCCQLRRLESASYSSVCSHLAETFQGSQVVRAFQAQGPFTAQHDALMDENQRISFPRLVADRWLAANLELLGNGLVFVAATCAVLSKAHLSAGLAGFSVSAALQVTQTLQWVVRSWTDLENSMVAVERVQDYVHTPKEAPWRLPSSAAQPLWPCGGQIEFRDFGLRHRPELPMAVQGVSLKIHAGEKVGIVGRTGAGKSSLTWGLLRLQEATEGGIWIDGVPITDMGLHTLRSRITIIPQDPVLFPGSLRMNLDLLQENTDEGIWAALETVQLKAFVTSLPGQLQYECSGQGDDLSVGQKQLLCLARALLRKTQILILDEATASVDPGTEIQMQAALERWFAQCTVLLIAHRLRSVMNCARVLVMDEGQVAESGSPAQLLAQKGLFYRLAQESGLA

In the case of `CC[C@]1(O)C[C@@H]2CN(CCc3c([nH]c4ccccc34)[C@@](C(=O)OC)(c3cc4c(cc3OC)N(C)[C@H]3[C@@](O)(C(=O)OC)[C@H](OC(C)=O)[C@]5(CC)C=CCN6CC[C@]43[C@@H]65)C2)C1` [VINBLASTINE], the Activity result in series [1] is “inhibitor [(at a rough estimate) 55 % of control]”. In the case of `COc1cc([C@@H]2c3cc4c(cc3[C@@H](O[C@@H]3O[C@@H]5CO[C@@H](C)O[C@H]5[C@H](O)[C@H]3O)[C@H]3COC(=O)[C@H]23)OCO4)cc(OC)c1O` [ETOPOSIDE], in series [2], the Activity entry is “is not an inhibitor [-]”.

Consider `CN(C)C(=O)CCSC(SCCC(=O)O)c1cccc(/C=C/c2ccc3ccc(Cl)cc3n2)c1` (stereo not given) [MK-571], for which the Activity result in series [3] is “inhibitor [(at a rough estimate) 60 % of control]”. With `COc1cccc2c1C(=O)c1c(O)c3c(c(O)c1C2=O)C[C@@](O)(C(=O)CO)C[C@@H]3O[C@H]1C[C@H](N)[C@H](O)[C@H](C)O1` [DOXORUBICIN], the Activity result in series [4] was “inhibitor [(at a rough estimate) 55 % of control]”. For `CCCCC/C=C\C\C=C/C=C/C=C/[C@@H](SC[C@@H](NC(=O)CC[C@H](N)C(=O)O)C(=O)NCC(=O)O)[C@@H](O)CCCC(=O)O` [LEUKOTRIEN C4], the Activity result in series [5] is “is not an inhibitor [-]”.
